Here are results for 25 molecules from patent US12234211B2, “Cycloolefin substituted heteroaromatic compounds and their use” (HUTCHISON MEDIPHARMA LIMITED, priority 2017, dated 2025).

SMILES strings stand for the structures. A value given as a limit tells only on which side of the number the result lay.

A short description of series [1]: Metabolic stability test in liver microsomes (mouse). The note with it: percentage of remaining compound after incubation for 30 minutes vs 0 minute; 1 μM compound; 0.5 mg/mL liver microsomes; 37° C. The series is classed as in vitro ADME. As for the experimental part:
(§1) Male CD1 mouse liver microsomes was supplied by Research Institute for Liver Diseases (Shanghai) Co., Ltd. Male SD rat liver microsomes was supplied by BioreclamationIVT in US.
(§2) Phenacetin, glucose-6-phosphate (G-6-P), glucose-6-phosphate dehydrogenase (G-6-PD), and nicotinamide adenine dinucleotide phosphate (NADP) were supplied by Sigma-Aldrich (Missouri, USA).
(§3) 10 mM stock solution of test compound: Certain amount of test compound was weighed and dissolved in certain volume of dimethylsulfoxide (DMSO) to get the stock solution of test compound at 10 mM.
(§4) Reaction termination solution: Certain amount of phenacetin as internal standard was weighed and dissolved in acetonitrile to get the reaction termination solution at 1000 ng/mL, and stored at room temperature for use.
(§5) The stock solution of test compound was diluted to the designated concentration with organic solution (usually the mixtures of acetonitrile, methanol and water with different portions depending on the compound solution) to make the final concentration to be 1 μM and the contents of organic solvents no more than 1% (For DMSO, the controlled margin was 0.1%) in the final incubation system. 100 mM NADP, 500 mM G-6-P and 100 U/mL G-6-PDH were mixed and diluted with ultrapure water to provide the NADPH regenerating system containing 1 mM NADP, 5 mM G-6-P and 1 U/mL G-6-PD, which was pre-incubated at 37° C. water-bath for 10 min and then cooled on ice until being added into the reaction system. 20 mg/mL liver microsomes was mixed with 200 mM PBS and diluted with ultrapure water to make the concentrations of liver microsomes and PBS to be 0.5 mg/mL and 50 mM in the final incubation system, respectively. After the diluted liver microsomes was mixed with the NADPH regenerating solution, certain volumes of 100 mM EDTA and 300 mM MgCl2 (concentration of EDTA and MgCl2 in the final incubation system is 1 mM and 3 mM, respectively) were added, and the incubation system was put into 37° C. water bath. The incubation was commenced by adding the stock solution of test compound and maintained for 30 min. The incubation was terminated by adding the reaction termination solution. The 0 min sample was prepared by adding the reaction termination solution to the incubation system immediately prior to putting the system into the water bath with the addition of the stock solution of test compound. The terminated incubation mixtures were vortexed and centrifuged at 4400 rpm for 10 min, and the supernatant was collected for LC-MS/MS analysis.
(§6) The concentration of test compound was determined using LC-MS/MS method. Using the peak area ratio of the compound and the internal standard as an index, the percentage of remaining compound after incubation for 30 minutes as compared with the 0 minute sample was calculated, and the metabolic stability of the compound was evaluated.

The target in another series is T1, IDH1-R132H (Homo sapiens, UniProt O75874, R132H).
T1 construct: expressed in transfected cells; host or cells: U87MG cells (U87MGR132H)
Briefly: Fluorescent determination of IDH1-R132H cell activity (2-HG in U87MGR132H cells). In kind it is cell-based. The following applies: 2-HG inhibition in U87MGR132H cells transfected with IDH1-R132H mutant plasmid.

Series [2] is described as follows: Metabolic stability test in liver microsomes (rat). The series is classed as in vitro ADME. The note with it: percentage of remaining compound after incubation for 30 minutes vs 0 minute; 1 μM compound; 0.5 mg/mL liver microsomes; 37° C. As for the experimental part: as §1, §2, §3, §4, §5, §6
The next series concerns the target T2, IDH2-R140Q (Homo sapiens, UniProt P48735, R140Q).
T2 construct: expressed in transfected cells
T2 sequence (P48735 40-452 R140Q): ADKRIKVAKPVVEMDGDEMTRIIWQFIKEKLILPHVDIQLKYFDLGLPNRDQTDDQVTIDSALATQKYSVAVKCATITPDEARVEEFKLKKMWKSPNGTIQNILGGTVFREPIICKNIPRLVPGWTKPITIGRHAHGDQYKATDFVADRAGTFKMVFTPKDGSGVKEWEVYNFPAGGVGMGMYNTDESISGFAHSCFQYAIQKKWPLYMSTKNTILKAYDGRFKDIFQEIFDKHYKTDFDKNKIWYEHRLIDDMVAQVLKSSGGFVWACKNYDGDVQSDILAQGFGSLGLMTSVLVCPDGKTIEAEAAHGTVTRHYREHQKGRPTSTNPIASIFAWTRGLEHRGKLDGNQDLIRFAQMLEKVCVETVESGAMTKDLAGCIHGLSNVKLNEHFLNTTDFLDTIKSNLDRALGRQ
Briefly: Fluorescent determination of IDH2-R140Q cell activity (2-HG in U87MGR140Q cells). In kind it is cell-based. The following applies: 72 hours incubation, read-out: IC50 (2-HG inhibition).

T1 sequence (O75874 whole entry R132H): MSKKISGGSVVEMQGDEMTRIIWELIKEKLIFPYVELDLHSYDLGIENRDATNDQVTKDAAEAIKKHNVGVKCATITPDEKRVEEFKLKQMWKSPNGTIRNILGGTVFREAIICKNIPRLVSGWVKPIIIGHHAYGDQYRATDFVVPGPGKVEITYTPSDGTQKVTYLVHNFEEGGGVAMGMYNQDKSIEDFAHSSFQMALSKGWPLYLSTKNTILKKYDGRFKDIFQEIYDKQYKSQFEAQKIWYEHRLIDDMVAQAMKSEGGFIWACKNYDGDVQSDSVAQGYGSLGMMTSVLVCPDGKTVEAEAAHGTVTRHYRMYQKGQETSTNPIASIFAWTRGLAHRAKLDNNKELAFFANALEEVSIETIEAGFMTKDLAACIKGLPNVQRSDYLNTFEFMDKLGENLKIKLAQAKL

With `OC1C(F)=C(c2nc(NC3CC(F)(F)C3)nc(NC3CC(F)(F)C3)n2)CCC1F` (single isomer, unassigned) [Compound 202], in series [1], the “Mouse liver microsome stability” value stood at 96.4%. The 50% inhibitory concentration (IC50) against IDH1-R132H turned out to be 1100 nM; at IDH2-R140Q, 383 nM. Also, the “Rat liver microsome stability” value in series [2] is listed as 94.2%.
On to `[2H]C1([2H])CCC(c2nc(NC3CC(F)(F)C3)nc(N[C@@H](C)C(F)(F)F)n2)=C(F)C1([2H])O` (mixture of isomers) [Compound 90], for which, in series [1], the “Mouse liver microsome stability” value stood at 80.9%. For the same molecule, in series [2], the “Rat liver microsome stability” value worked out at 82.4%.
For `OC1CCCC(c2nc(NC3CC(F)(F)C3)nc(NC3CC(F)(F)C3)n2)=C1F` (stereo not drawn) [Compound 5], the “Mouse liver microsome stability” value in series [1] came out at 58.6%. The half-maximal inhibitory concentration (IC50) at IDH1-R132H was 869 nM; at IDH2-R140Q it was 93 nM. The “Rat liver microsome stability” value in series [2] was found to be 76.8%.
The matching figures for `CC(C)Nc1nc(N[C@H](C)C(F)(F)F)nc(C2=C(F)C(O)C(F)CC2)n1` (single isomer, unassigned) [Compound 95]: 80.1%, 317 nM, 43 nM and 74.8%.
Consider `[2H]C1([2H])CCC(c2nc(NC3CC(F)(F)C3)nc(NC3CC(F)(F)C3)n2)=C(F)C1([2H])O` (racemic) [Compound 91], for which, in series [1], the “Mouse liver microsome stability” value came out at 70.5%. Besides, the “Rat liver microsome stability” value in series [2] turned out to be 86.6%. In addition, the half-maximal inhibitory concentration (IC50) at IDH2-R140Q was 58 nM.
Consider `C[C@@H](Nc1nc(N[C@H](C)C(F)(F)F)nc(C2=CC(O)CCC2)n1)C(F)(F)F` (mixture of isomers) [Compound 126], for which the “Mouse liver microsome stability” value in series [1] is 58.2%. The half-inhibitory concentration (IC50) against IDH1-R132H was 289 nM; on IDH2-R140Q, 86 nM. The “Rat liver microsome stability” value in series [2] is recorded as 79.8%.
Turning to `C[C@@H](Nc1nc(N[C@H](C)C(F)(F)F)nc(C2=C(F)C(O)C(F)CC2)n1)C(F)(F)F` (single isomer, unassigned) [Compound 98], the “Mouse liver microsome stability” value in series [1] stood at 83.7%. Also, the values for the 50% inhibitory concentration (IC50) against IDH1-R132H and at IDH2-R140Q were 254 nM and 344 nM, respectively. Also, the “Rat liver microsome stability” value in series [2] was 99.2%.
As for `C[C@@H](Nc1nc(N[C@@H]2CCC(F)(F)C2)nc(C2=C(F)C(O)C(F)CC2)n1)C(F)(F)F` (single isomer, unassigned) [Compound 232], in series [1], the “Mouse liver microsome stability” value worked out at 76.3%. In addition, the IC50 worked out at 70 nM against IDH1-R132H and 40 nM on IDH2-R140Q. In addition, in series [2], the “Rat liver microsome stability” value is listed as 86.6%.
As to `C[C@@H](Nc1nc(NC2CCC2)nc(C2=CC(O)CCC2)n1)C(F)(F)F` (mixture of isomers) [Compound 128], the “Mouse liver microsome stability” value in series [1] is listed as 15.9%. The “Rat liver microsome stability” value in series [2] amounted to 34.0%. Moreover, the half-maximal inhibitory concentration (IC50) on IDH2-R140Q worked out at 92 nM.
As to `C[C@@H](Nc1nc(N[C@H](C)C(F)(F)F)nc(C2=C(F)C(O)C(F)(F)CC2)n1)C(F)(F)F` (mixture of isomers) [Compound 196], in series [1], the “Mouse liver microsome stability” value stood at 95.2%. Moreover, the 50% inhibitory concentration (IC50) against IDH1-R132H came out at 210 nM; at IDH2-R140Q, 94 nM. For the same molecule, the “Rat liver microsome stability” value in series [2] turned out to be 100.0%.
For the molecule `C[C@@H](Nc1nc(NC2CCC(F)(F)C2)nc(C2=C(F)C(O)CCC2)n1)C(F)(F)F` (mixture of isomers) [Compound 6], the “Mouse liver microsome stability” value in series [1] came out at 76.3%. For the same molecule, the results for the half-inhibitory concentration (IC50) on IDH1-R132H and on IDH2-R140Q were 670 nM and 115 nM, respectively. In series [2], the “Rat liver microsome stability” value is given as 70.0%.
In the same order, the values of `[2H]C1([2H])CCC(c2nc(NC3CC(F)(F)C3)nc(NC3CC(F)(F)C3)n2)=C(F)C1O` (stereo not drawn) [Compound 85] are 64.0%, 207 nM, 35 nM and 78.1%.
For the molecule `CC(Nc1nc(NC2CC(F)(F)C2)nc(C2=C(F)C(O)CCC2)n1)C(F)(F)F` (racemic) [Compound 4], the “Mouse liver microsome stability” value in series [1] amounted to 82.1%. In addition, the IC50 against IDH1-R132H worked out at 750 nM; on IDH2-R140Q, 80 nM. In series [2], the “Rat liver microsome stability” value is on record as 62.9%.
Turning to `C[C@@H](Nc1nc(NC2CC(F)(F)C2)nc(C2=C(F)C(O)C(F)(F)CC2)n1)C(F)(F)F` (stereo partly drawn) [Compound 259, 3-(4-((3,3-Difluorocyclobutyl)amino)-6-(((R)-1,1,1-trifluoropropan-2-yl)amino)-1,3,5-triazin-2-yl)-2,6,6-trifluorocyclohex-2-en-1-ol], the “Mouse liver microsome stability” value in series [1] stood at 86.9%. The IC50 against IDH1-R132H was 213 nM; on IDH2-R140Q, 57 nM. Moreover, in series [2], the “Rat liver microsome stability” value is 95.1%.
On to `[2H]C1([2H])CCC(c2nc(N[C@H](C)C(F)(F)F)nc(N[C@H](C)C(F)(F)F)n2)=C(F)C1([2H])O` (mixture of isomers) [Compound 83, 3-(4,6-bis(((R)-1,1,1-trifluoropropan-2-yl)amino)-1,3,5-triazin-2-yl)-2-fluorocyclohex-2-en-1,6,6-D3-1-ol], for which, in series [1], the “Mouse liver microsome stability” value came out at 83.7%. Besides, the “Rat liver microsome stability” value in series [2] is listed as 96.6%.
In the same order, the values of `[2H]C1(O)C(F)=C(c2nc(N[C@H](C)C(F)(F)F)nc(N[C@H](C)C(F)(F)F)n2)CCC1F` (stereo partly drawn) [Compound 266, 3-(4,6-Bis(((R)-1,1,1-trifluoropropan-2-yl)amino)-1,3,5-triazin-2-yl)-2,6-difluorocyclohex-2-en-1-D-1-ol] are 91.5% and 98.2%.
Take `CC(C)Nc1nc(N[C@H](C)C(F)(F)F)nc(C2=C(F)C(O)CCC2)n1` (mixture of isomers) [Compound 1, 2-Fluoro-3-(4-(isopropylamino)-6-(((R)-1,1,1-trifluoropropan-2-yl)amino)-1,3,5-triazin-2-yl)cyclohex-2-en-1-ol]: the “Mouse liver microsome stability” value in series [1] is 83.5%. The “Rat liver microsome stability” value in series [2] is recorded as 73.8%. The IC50 at IDH2-R140Q was 97 nM.
Regarding `C[C@@H](Nc1nc(NOC(C)(C)C)nc(C2=C(F)C(O)C(F)(F)CC2)n1)C(F)(F)F` (mixture of isomers) [Compound 294], the IC50 at IDH1-R132H stood at 9180 nM; at IDH2-R140Q, 425 nM.
In the same order, the values of `C[C@@H](Nc1nc(N[C@@H]2CCC(F)(F)C2)nc(C2=C(F)C(O)C(F)CC2)n1)C(F)(F)F` (single isomer, unassigned) [Compound 233] are 628 nM and 368 nM.
With `CC(C)(C)ONc1nc(Nc2ccnc(C(F)(F)F)n2)nc(C2=C(F)C(O)C(F)(F)CC2)n1` (stereo not drawn) [Compound 214], the values for the IC50 at IDH1-R132H and at IDH2-R140Q were over 10000 nM and 108 nM, respectively.
In the same order, the values of `OC1C(F)=C(c2nc(Nc3ccnc(C(F)(F)F)c3)nc(N3CC(F)(F)C3)n2)CCC1(F)F` (single isomer, unassigned) [Compound 221] are over 10000 nM and 487 nM.
The matching figures for `CC(Nc1nc(N[C@H](C)C(F)(F)F)nc(C2=C(F)C(O)CCC2)n1)C(C)(F)F` (mixture of isomers) [Compound 175]: 495 nM and 291 nM.
In the same order, the values of `CC(C)[C@@H](C)Nc1nc(N[C@H](C)C(F)(F)F)nc(C2=C(F)C(O)CCC2)n1` (mixture of isomers) [Compound 163] are 809 nM and 162 nM.
With `CC(C)(O)CNc1nc(Nc2ccn3nccc3c2)nc(C2=C(F)C(O)CCC2)n1` (stereo not drawn) [Compound 67], the half-inhibitory concentration (IC50) is over 10000 nM on IDH1-R132H and 2370 nM at IDH2-R140Q.
Consider `CC(C)CNc1nc(N[C@H](C)C(F)(F)F)nc(C2=C(F)C(O)CCC2)n1` (stereo partly drawn) [Compound 78], for which the half-inhibitory concentration (IC50) was 1410 nM against IDH1-R132H and 69 nM on IDH2-R140Q.
